T/C data for 15 compounds are collected here from PubChem BioAssay AID200 (DTP/NCI, 2004).

This assay has as its system B6C3F1 mice, B16 melanoma ip, median survival T/C. Nature of the assay: NCI In Vivo Anticancer Drug Screen. Data for tumor model B16 Melanoma (intraperitoneal) in B6C3F1 mice. The note with it: endpoint: median survival time, higher = longer survival. In short, it runs like this: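 Readout: survival or tumor size in treated mice relative to vehicle controls (T/C). Model uses transplantable tumors grown in mice.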

The mark [1] stands for this setting: dose: 12.5 mg/kg/injection, schedule: Q01DX009 (ip), vehicle: saline.
[2] abbreviates: dose: 25.0 mg/kg/injection, schedule: Q01DX009 (ip), vehicle: saline.
Where [3] appears, read: dose: 50.0 mg/kg/injection, schedule: Q01DX009 (ip), vehicle: saline.
[4] abbreviates: dose: 100.0 mg/kg/injection, schedule: Q01DX009 (ip), vehicle: saline.
Setting [5] is: dose: 200.0 mg/kg/injection, schedule: Q01DX009 (ip), vehicle: saline.
Where [6] appears, read: dose: 400.0 mg/kg/injection, schedule: Q01DX009 (ip), vehicle: saline.
Setting [7] is: dose: 800.0 mg/kg/injection, schedule: Q01DX009 (ip), vehicle: saline.
Where [8] appears, read: dose: 0.25 mg/kg/injection, schedule: Q01DX009 (ip), vehicle: saline.
[9] abbreviates: dose: 0.5 mg/kg/injection, schedule: Q01DX009 (ip), vehicle: saline.
[10] abbreviates: dose: 1.0 mg/kg/injection, schedule: Q01DX009 (ip), vehicle: saline.
The mark [11] stands for this setting: dose: 2.0 mg/kg/injection, schedule: Q01DX009 (ip), vehicle: saline.
Where [12] appears, read: dose: 25.0 mg/kg/injection, schedule: Q01DX009 (ip), vehicle: Klucel (hydroxypropylcellulose) (HPC).
[13] abbreviates: dose: 12.5 mg/kg/injection, schedule: Q01DX009 (ip), vehicle: saline with Tween-80.
The mark [14] stands for this setting: dose: 25.0 mg/kg/injection, schedule: Q01DX009 (ip), vehicle: saline with Tween-80.
Where [15] appears, read: dose: 50.0 mg/kg/injection, schedule: Q01DX009 (ip), vehicle: saline with Tween-80.

“And” between values parts separate entries of the source, which are not always exact repeats. Equal entries are not always repeated. Toxic doses and inconclusive results are not listed. Where a SMILES comes first, the peptide text is derived from it. Bridges are numbered along the chain shown (N, C = ends).

As for `C[C@@](O)(/C=C/[C@H]1CC=CC(=O)O1)[C@@H](C[C@@H](O)\C=C/C=C\C=C\CO)OP(=O)(O)O`, the T/C by setting is: (dose: 3.12 mg/kg/injection, schedule: Q01DX009 (ip), vehicle: other) 98 % of control and 105 % of control; (dose: 6.25 mg/kg/injection, schedule: Q01DX009 (ip), vehicle: other) 110 % of control and 102 % of control; (dose: 12.5 mg/kg/injection, schedule: Q01DX009 (ip), vehicle: other) 101 % of control and 103 % of control; (dose: 25.0 mg/kg/injection, schedule: Q01DX009 (ip), vehicle: other) 99 % of control.

For the compound `OCCCN1CCCCC1CO` (stereo not given), the T/C reads like this: under setting [1], 94 % of control; under setting [2], 106 % of control; under setting [3], 99 % of control; under setting [4], 105 % of control; under setting [5], 101 % of control; under setting [6], 111 % of control and 101 % of control. Also, under setting [7], the T/C is 112 % of control.

In the case of `NCC(=O)NC(CC(N)=O)C(=O)O` (stereo not given) (HELM PEPTIDE1{G.[NC(=O)CC(N[*:1])C(=O)O]}$$$$V2.0), the T/C runs as follows: under setting [3], 98 % of control; under setting [4], 91 % of control; under setting [5], 93 % of control.

As for `CO[C@H](C(=O)[C@@H](O)[C@@H](C)O)[C@@H]1Cc2cc3cc(OC4CC(OC5CC(O)C(O)C(C)O5)C(O)C(C)O4)c(C)c(O)c3c(O)c2C(=O)[C@H]1OC1CC(OC2CC(OC3CC(C)(O)C(O)C(C)O3)C(O)C(C)O2)C(O)C(C)O1` (stereo not given in full), the T/C reads like this: (dose: 0.06 mg/kg/injection, schedule: Q01DX009 (ip), vehicle: saline) 111 % of control; (dose: 0.12 mg/kg/injection, schedule: Q01DX009 (ip), vehicle: saline) 101 % of control; under setting [8], 101 % of control; under setting [9], 117 % of control; under setting [10], 105 % of control; under setting [11], 113 % of control.

In the case of `O=C1NC(=O)C2(CCc3ccc(N(CCCl)CCCl)cc32)N1` (stereo not given), the T/C runs as follows: (dose: 1.5 mg/kg/injection, schedule: Q01DX009 (ip), vehicle: saline with Tween-80) 122 % of control; (dose: 6.25 mg/kg/injection, schedule: Q01DX009 (oral), vehicle: saline with Tween-80) 100 % of control; (dose: 12.0 mg/kg/injection, schedule: Q01DX009 (ip), vehicle: saline with Tween-80) 157 % of control; (dose: 12.5 mg/kg/injection, schedule: Q01DX009 (oral), vehicle: saline with Tween-80) 115 % of control and 108 % of control; (dose: 24.0 mg/kg/injection, schedule: Q01DX009 (ip), vehicle: saline with Tween-80) 202 % of control; (dose: 25.0 mg/kg/injection, schedule: Q01DX009 (oral), vehicle: saline with Tween-80) 109 % of control and 105 % of control. The T/C was 236 % of control (dose: 48.0 mg/kg/injection, schedule: Q01DX009 (ip), vehicle: saline with Tween-80); 121 % of control and 104 % of control (dose: 50.0 mg/kg/injection, schedule: Q01DX009 (oral), vehicle: saline with Tween-80); 109 % of control and 117 % of control (dose: 100.0 mg/kg/injection, schedule: Q01DX009 (oral), vehicle: saline with Tween-80); 117 % of control and 101 % of control (dose: 200.0 mg/kg/injection, schedule: Q01DX009 (oral), vehicle: saline with Tween-80); 109 % of control (dose: 400.0 mg/kg/injection, schedule: Q01DX009 (oral), vehicle: saline with Tween-80).

On to `COc1cccc2c1C(=O)c1c(O)c3c(c(O)c1C2=O)C[C@@](O)(C(=O)COC(=O)c1cccnc1)C[C@@H]3OC1CC(N)C(O)C(C)O1` (stereo not given in full), for which the T/C by setting is: under setting [8], 170 % of control; under setting [9], 198 % of control; under setting [10], 220 % of control; under setting [11], 255 % of control.

Regarding `O=c1[nH]c(=O)c2nc(-c3cccnc3)cnc2[nH]1`, the T/C was 92 % of control under setting [1], 98 % of control under setting [2], 95 % of control under setting [3] and 92 % of control under setting [4].

Turning to `Nc1ncnc2c1nnn2C1OC(CO)C(O)C1O` (stereo not given), the T/C reads like this: (dose: 6.0 mg/kg/injection, schedule: Q01DX009 (ip), vehicle: Klucel (hydroxypropylcellulose) (HPC)) 113 % of control; (dose: 12.0 mg/kg/injection, schedule: Q01DX009 (ip), vehicle: Klucel (hydroxypropylcellulose) (HPC)) 115 % of control; under setting [12], 176 % of control.

For the compound `Cc1cc(NCCCCCCNc2cc(C)nc3cc(N(C)C)ccc23)c2ccc(N(C)C)cc2n1`, the T/C is 100 % of control (dose: 3.13 mg/kg/injection, schedule: Q01DX009 (ip), vehicle: distilled water + Tween-80 + alcohol); 112 % of control (dose: 6.25 mg/kg/injection, schedule: Q01DX009 (ip), vehicle: distilled water + Tween-80 + alcohol); 112 % of control and 122 % of control (dose: 12.5 mg/kg/injection, schedule: Q01DX009 (ip), vehicle: distilled water + Tween-80 + alcohol).

In the case of `CCC(C)C1NC(=O)C(CC(C)C)NC(=O)C(C(C)C)NC(=O)C2CSSCC(NC1=O)C(=O)N2` (stereo not given) (cyclo(CCVLI); disulfide 1-2; configuration not given here), the T/C was 105 % of control (dose: 31.25 micrograms/kg/injection, schedule: Q01DX009 (ip), vehicle: Klucel (hydroxypropylcellulose) (HPC)); 105 % of control (dose: 62.5 micrograms/kg/injection, schedule: Q01DX009 (ip), vehicle: Klucel (hydroxypropylcellulose) (HPC)); 96 % of control (dose: 125.0 micrograms/kg/injection, schedule: Q01DX009 (ip), vehicle: Klucel (hydroxypropylcellulose) (HPC)); 94 % of control (dose: 500.0 micrograms/kg/injection, schedule: Q01DX009 (ip), vehicle: Klucel (hydroxypropylcellulose) (HPC)); 95 % of control (dose: 1000.0 micrograms/kg/injection, schedule: Q01DX009 (ip), vehicle: Klucel (hydroxypropylcellulose) (HPC)).

`NC(=O)c1[nH]nc(C2OC(CO)C(O)C2O)c1O` (stereo not given): the T/C reads like this: (dose: 0.13 mg/kg/injection, schedule: Q01DX009 (ip), vehicle: saline) 106 % of control; under setting [8], 103 % of control; under setting [9], 111 % of control; under setting [10], 118 % of control.

As to `O=C([O][Bi]([c]1ccccc1)[c]1ccccc1)c1ccccc1`, the T/C runs as follows: (dose: 6.25 mg/kg/injection, schedule: Q01DX009 (ip), vehicle: Klucel (hydroxypropylcellulose) (HPC)) 101 % of control; (dose: 12.5 mg/kg/injection, schedule: Q01DX009 (ip), vehicle: Klucel (hydroxypropylcellulose) (HPC)) 96 % of control; under setting [12], 88 % of control.

On to `O=C(O)CP(=O)(O)O`, for which the T/C was 100 % of control under setting [1]; 102 % of control and 107 % of control under setting [2]; 102 % of control and 106 % of control under setting [3]; 118 % of control and 121 % of control under setting [4]; 164 % of control under setting [5]; 189 % of control and 227 % of control under setting [6]. For the same compound, under setting [7], the T/C was 206 % of control and 255 % of control.

Consider `Clc1ccc(CN2COc3c(ccc4cccnc34)C2)cc1Cl`, for which the T/C by setting is: under setting [13], 102 % of control; under setting [14], 109 % of control; under setting [15], 92 % of control.

With `O=Cc1ccccc1`, the T/C reads like this: under setting [13], 101 % of control; under setting [12], 100 % of control; under setting [14], 99 % of control; (dose: 50.0 mg/kg/injection, schedule: Q01DX009 (ip), vehicle: Klucel (hydroxypropylcellulose) (HPC)) 105 % of control; under setting [15], 98 % of control; (dose: 50.0 mg/kg/injection, schedule: Q01DX009 (oral), vehicle: Klucel (hydroxypropylcellulose) (HPC)) 95 % of control. Moreover, the T/C is 98 % of control (dose: 100.0 mg/kg/injection, schedule: Q01DX009 (ip), vehicle: saline with Tween-80); 88 % of control (dose: 100.0 mg/kg/injection, schedule: Q01DX009 (oral), vehicle: Klucel (hydroxypropylcellulose) (HPC)); 86 % of control (dose: 200.0 mg/kg/injection, schedule: Q01DX009 (ip), vehicle: Klucel (hydroxypropylcellulose) (HPC)); 89 % of control (dose: 200.0 mg/kg/injection, schedule: Q01DX009 (ip), vehicle: saline with Tween-80); 98 % of control (dose: 200.0 mg/kg/injection, schedule: Q01DX009 (oral), vehicle: Klucel (hydroxypropylcellulose) (HPC)); 92 % of control (dose: 400.0 mg/kg/injection, schedule: Q01DX009 (ip), vehicle: Klucel (hydroxypropylcellulose) (HPC)). Further, the T/C (dose: 400.0 mg/kg/injection, schedule: Q01DX009 (oral), vehicle: Klucel (hydroxypropylcellulose) (HPC)) is 105 % of control.
